Measured values taken from patent US20030118653A1, “Quick dissolving oral mucosal drug delivery device with moisture barrier coating” (Lavipharm Laboratories Inc., priority 2001, published 2003).

Test: Bioavailability of sildenafil from film with water soluble inert filler
Type: in vivo
Conditions: incorporated in a film with water soluble inert filler xylitol
Text: A further parameter affecting the uptake of an active agent or combination of active agents from the quick dissolving oral mucosal drug delivery devices of the present invention is the manner in which the active agent or combination of active agents is dispersed in the delivery device. For example, the active agent or combination of active agents may be dispersed as colloidal particles or be microencapsulated within the delivery device or alternatively may be mixed throughout the delivery device as a reagent during casting. In another example, the active agent can form a solid dispersion with a water soluble inert filler for purposes of increasing the solubility of the active agent when released from the inner layer thereby enhancing bioavailability of the active agent. […] In another example, a bitter active agent can form saliva insoluble complex with water insoluble polymers for the purpose of taste masking.

bioavailability: enhance the bioavailability
SMILES: CCCc1nn(C)c2c(=O)[nH]c(-c3cc(S(=O)(=O)N4CCN(C)CC4)ccc3OCC)nc12 [sildenafil]
